# Experimental data as given in patent publication US9561228B2 (Celgene Avilomics Research, Inc., priority 2013, dated 2017).
# Experiments:
# [1] = test system: HCT116 cells (colorectal carcinoma); test: Inhibition of cancer cell proliferation, HCT116 (CellTiterGlo, 72 hours); type: cell-based; details: Homo sapiens, HCT-116
# Description: Measurement of Inhibition of Cancer Cell Proliferation (HCT116/Colorectal Carcinoma)
# The following protocol used a HCT116 cell line, which cell line is a model for colorectal carcinoma. HCT116 cells were split and 3000 cells in 100 μl of growth medium were added per well of a flat-bottom 96-well plate. A two-fold test compound solution in serum-free RPM1640 was made, starting at 5,000 nM. Then, 3-fold serial dilutions were made across the plate from well 1 to well 11. Well 12, the last well in a row on the plate, was left as untreated control. 100 μl compound solutions were then transferred to the wells, so the total volume of media was 200 μl per well. Plates were returned to a 37° C. incubator, and the cells were cultured for 72 hours. To measure cell proliferation after 72 hours, media was discarded from the plates, 50 μl/well of fresh medium was added, and 50 μl CellTiterGlo solution was added (Promega Cat#G7573). The plate was covered with a dark lid and incubated for 10 min. A white sealing tape was applied to the bottom of the plate, and the plate was read in a luminescence plate reader. […] 50 μl CellTiterGlo was added per well, and the plate was read in a luminescence plate reader after 10 min. The reading was plotted vs. cell number to generate a standard curve and the equation of the curve fit. The compound-treated sample luminescence readings were converted to cell numbers using the curve-fit equation. The percent of inhibition, using untreated control as 100% growth, was then calculated. GI50 was then calculated by GraphPad Prism.
# [2] = test system: HT-29 cells (colorectal adenocarcinoma); test: Inhibition of cancer cell proliferation, HT-29 (CellTiterGlo, 72 hours); type: cell-based; details: Homo sapiens
# Summary of the method: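 HT-29 cells seeded at 3000/well, then treated with 3-fold serial dilutions from a 5,000 nM two-fold solution in serum-free RPMI1640, untreated wells as control, for 72 h at 37° C. CellTiterGlo luminescence converted to cell number via a standard curve; GI50 from percent inhibition versus untreated growth.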
# [3] = test system: A375 cells (malignant melanoma); test: Inhibition of cancer cell proliferation, A375 (CellTiterGlo, 72 hours); type: cell-based; details: Homo sapiens, A-375
# Summary of the method: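 A375 melanoma cells, 3000/well, exposed 72 h at 37 °C to compound in 3-fold serial dilutions (solution added as 2× stock starting at 5,000 nM in serum-free DMEM). CellTiterGlo luminescence converted to cell number via standard curve; % inhibition vs untreated control, GI50 from curve fit.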
# [4] = test system: ERK1/2 phosphorylation of p90RSK in HT29 cells; test: pRSK MSD Assay in HT29 cells; type: cell-based; details: Homo sapiens, HT-29, read-out: ERK1/ERK2 PRSK MSD HT29 EC50
# Summary of the method: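 Serum-starved HT29 cells (0.1% FBS overnight) treated with test compound for 120 min at 37° C, then lysed with protease and phosphatase inhibitors. Phospho-p90RSK quantified by MSD sandwich immunoassay: RSK capture antibody, phospho-RSK detection antibody plus Sulfo-tagged antibody, electrochemiluminescence read.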
# MEK1 activated ERK1 = biological target: T1, MEK1 activated ERK1 (Homo sapiens, UniProt P27361); test: Omnia continuous-read kinase assay for potency against MEK1 activated ERK1; type: biochemical; details: MEK1 activated ERK1, ATP at KM; read-out: ERK1 Omnia WT ATP KM IC50
# T1 construct: purchased Millipore (Billerica, Mass.) 14-439-K
# Summary of the method: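 Apparent IC50 came from initial reaction slopes (RFU vs time) plotted against log inhibitor with a variable-slope fit. Reactions were started with ERK1 (4 nM final) added to 50 μM ATP, roughly at its appKM, and 10 μM Sox-conjugated ST17 peptide in 20 mM Tris pH 7.5, 5 mM MgCl2. Fluorescence was monitored every 71 seconds.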
# Erk1 = biological target: T2, Erk1 (Homo sapiens, UniProt P27361); test: Protein Mass Modification Assay (intact protein MALDI, 60 min, 10-fold excess of compound); type: binding
# T2 construct: purchased Millipore 14-439
# Summary of the method: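 Human Erk1 was incubated 60 min at room temperature with a 10-fold molar excess of compound, then analysed as intact protein by MALDI with sinapinic acid matrix. The centroid mass shift versus untreated protein was divided by compound molecular weight to give percent modified protein.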
# ERK1/ERK2 = test: Measurement of Erk occupancy with biotinylated covalent probe I-299 (HT-29); type: cell-based; details: HT-29 cells
# Description: Measurement of Erk Occupancy with Biotinylated Covalent Probe
# This experiment measured occupancy of the ERK1/ERK2 target by compounds according to the invention. This experiment was conducted using the Mesoscale Discovery test kit (Cat. # N45107B). One day before the assay, cells were split and added at 50,000 cells per well to a flat-bottom 96 well plate in 200 μl of growth medium. The next day, the medium was discarded, 100 μl medium containing test compound was added, and the plate was incubated at 37° C. for 120 minutes. The plate was rinsed once with PBS, and 50 μl lysis buffer with test compound was added. The plate was incubated at 4° C. for 30 min, and 30 μl of lysate was transferred to a plate to capture total and phosphor-Erk. Biotinylated probe 1-299 was diluted in lysis buffer and added to each well to a final concentration of 0.2 μM. The plate was incubated for 2 hr under constant shaking at room temperature. The plate was washed 3 times with MSD wash buffer. To detect the biotinylated probe bonding, tagged streptavidin was added (Mesoscale Discovery, Cat. # R32AD-1) at 1 μg/ml, 25 μl/well, followed by a 60 min incubation under shaking. The plate was washed 3 times, 150 μl MSD Read Buffer (Mesoscale Discovery, Cat. R61TX) was added and the plate was read in a plate reader manufactured by MSD. Percent occupancy by test compound at Erk was calculated by comparing the chemiluminescence readings from treated cells as compared to the chemiluminescence readings in untreated controls (which are defined as 100% probe bonding or 0% test compound occupancy). The amount of covalent probe signal divided by the amount of ERK signal for samples with no test compound treatment represents the maximum probe signal (MPS). In samples treated with test compound prior to covalent probe, the ratio of probe signal to ERK signal (the test probe signal, TPS) was reduced by the degree of target occupancy by the test compound which blocks covalent probe binding. The difference between the MPS and the TPS, divided by the MPS gave the target occupancy by the test compound. This ratio was then expressed as a percent occupancy. Results from this assay are provided in Table A below under the column “Occupancy EC50 (nM) HT-29.”
# T2 sequence (P27361 whole entry): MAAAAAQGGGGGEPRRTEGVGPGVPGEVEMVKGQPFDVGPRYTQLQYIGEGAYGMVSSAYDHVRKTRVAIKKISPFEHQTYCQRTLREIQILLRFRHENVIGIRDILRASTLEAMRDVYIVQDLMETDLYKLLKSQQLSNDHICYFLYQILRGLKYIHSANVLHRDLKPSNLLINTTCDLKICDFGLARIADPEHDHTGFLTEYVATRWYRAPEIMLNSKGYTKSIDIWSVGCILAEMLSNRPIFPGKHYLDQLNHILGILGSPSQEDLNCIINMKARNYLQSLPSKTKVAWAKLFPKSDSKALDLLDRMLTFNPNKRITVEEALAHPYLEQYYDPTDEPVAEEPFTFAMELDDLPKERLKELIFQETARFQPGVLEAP
# T1 sequence (P27361 whole entry): as above
Compound,GI50 [1] [nM],GI50 [2] [nM],GI50 [3] [nM],EC50 [4] [nM],IC50 (MEK1 activated ERK1) [nM],ERK1 Mass Mod (%) (Erk1),EC50 (ERK1/ERK2) [nM]
"C=CC(=O)Nc1ccccc1Nc1nc(N[C@H]2CCCN(C(C)=O)C2)ncc1C(F)(F)F [Compound I-10, (S)—N-(2-(2-(1-acetylpiperidin-3-ylamino)-5-(trifluoromethyl)pyrimidin-4-ylamino)phenyl)acrylamide]",< 100,< 100,< 100,< 100,,,
"C=CC(=O)Nc1cc(C)ccc1Nc1nc(N[C@H]2CCCN(C(C)=O)C2)ncc1C(F)(F)F [Compound I-19, (S)—N-(2-((2-((1-Acetylpiperidin-3-yl)amino)-5-(trifluoromethyl)pyrimidin-4-yl)amino)-5-methylphenyl)acrylamide]",< 100,< 100,< 100,< 100,,,
"C=CC(=O)Nc1cc(C)ccc1Nc1nc(N[C@H]2CCCN(C(=O)CO)C2)ncc1C(F)(F)F [Compound I-20, (S)—N-(2-((2-((1-(2-Hydroxyacetyl)piperidin-3-yl)amino)-5-(trifluoromethyl)pyrimidin-4-yl)amino)-5-methylphenyl)acrylamide]",< 100,< 100,< 100,< 100,,,
"C=CC(=O)Nc1ccccc1Nc1nc(N[C@H]2CCCN(C(=O)C=O)C2)ncc1C(F)(F)F [Compound I-52, (S)—N-(2-((2-((1-(2-Oxoacetyl)piperidin-3-yl)amino)-5-(trifluoromethyl)pyrimidin-4-yl)amino)phenyl)acrylamide]",> 1000,101 to 500,101 to 500,,101 to 500,,
"C=C(F)C(=O)Nc1ccccc1Nc1nc(N[C@H]2CCCN(C(C)=O)C2)ncc1C(F)(F)F [Compound I-55, (S)—N-(2-((2-((1-Acetylpiperidin-3-yl)amino)-5-(trifluoromethyl)pyrimidin-4-yl)amino)phenyl)-2-fluoroacrylamide]",101 to 500,< 100,< 100,101 to 500,,,
"C=CC(=O)Nc1ccccc1Nc1nc(Nc2cncc(OC)c2)ncc1C(F)(F)F [Compound I-86, N-(2-((2-((5-Methoxypyridin-3-yl)amino)-5-(trifluoromethyl)pyrimidin-4-yl)amino)phenyl)acrylamide]",< 100,< 100,< 100,< 100,,E (a mass modification of ≧70%),
"C=CC(=O)Nc1ccccc1Nc1nc(N[C@H]2CCCN(C(=O)CO)C2)ncc1Cl [Compound I-123, (S)—N-(2-((5-chloro-2-((1-(2-hydroxyacetyl)piperidin-3-yl)amino)pyrimidin-4-yl)amino)phenyl)acrylamide]",< 100,< 100,< 100,< 100,,,
"C=CC(=O)Nc1cc(C)ccc1Nc1nc(N[C@H]2CCCN(C(C)=O)C2)ncc1Cl [Compound I-139, (S)—N-(2-((2-((1-acetylpiperidin-3-yl)amino)-5-chloropyrimidin-4-yl)amino)-5-methylphenyl)acrylamide]",< 100,< 100,< 100,< 100,,E (a mass modification of ≧70%),
"C=CC(=O)Nc1ccccc1Nc1nc(Nc2cc(S(N)(=O)=O)ccc2C)ncc1Cl [Compound I-205, N-(2-((5-chloro-2-((2-methyl-5-sulfamoylphenyl)amino)pyrimidin-4-yl)amino)phenyl)acrylamide]",,< 100,,< 100,,,< 100
"C=CC(=O)Nc1cc(F)ccc1Nc1nc(Nc2cc(C(N)=O)ccc2C)ncc1Cl [Compound I-206, 3-((4-((2-acrylamido-4-fluorophenyl)amino)-5-chloropyrimidin-2-yl)amino)-4-methylbenzamide]",,< 100,,101 to 500,,,< 100
"C=CC(=O)Nc1ccccc1Nc1nc(Nc2ccc(F)cc2C#N)ncc1Cl [Compound I-211, N-(2-((5-chloro-2-((2-cyano-4-fluorophenyl)amino)pyrimidin-4-yl)amino)phenyl)acrylamide]",,101 to 500,,< 100,,,< 100
"C=CC(=O)Nc1ccccc1Nc1nc(Nc2cc(C(N)=O)c(F)cc2C)ncc1Cl [Compound I-214, 5-((4-((2-acrylamidophenyl)amino)-5-chloropyrimidin-2-yl)amino)-2-fluoro-4-methylbenzamide]",,< 100,,< 100,,,< 100
"C=CC(=O)Nc1cc(OC)ccc1Nc1nc(Nc2cc(C(N)=O)ccc2C)ncc1Cl [Compound I-237, 3-((4-((2-acrylamido-4-methoxyphenyl)amino)-5-chloropyrimidin-2-yl)amino)-4-methylbenzamide]",501 to 999,< 100,< 100,101 to 500,,,
"C=CC(=O)Nc1cc(C)ccc1Nc1nc(Nc2cc(C(C)=O)ccc2C)ncc1Cl [Compound I-239, N-(2-((2-((5-acetyl-2-methylphenyl)amino)-5-chloropyrimidin-4-yl)amino)-5-methylphenyl)acrylamide]",501 to 999,101 to 500,101 to 500,,101 to 500,E (key: E: a mass modification of ≧70%; F: a mass modification of 31-69%; G: a mass modification ≦30%),
"C=CC(=O)Nc1ccccc1Nc1nc(Nc2cc(OC)ncc2C)ncc1Cl [Compound I-240, N-(2-((5-chloro-2-((2-methoxy-5-methylpyridin-4-yl)amino)pyrimidin-4-yl)amino)phenyl)acrylamide]",101 to 500,< 100,< 100,< 100,,,
"C=CC(=O)Nc1cc(C)ccc1Nc1nc(Nc2cc(OC)ncc2C)ncc1Cl [Compound I-241, N-(2-((5-chloro-2-((2-methoxy-5-methylpyridin-4-yl)amino)pyrimidin-4-yl)amino)-5-methylphenyl)acrylamide]",101 to 500,< 100,101 to 500,< 100,,,
"CCC(=O)Nc1ccccc1Nc1nc(N[C@H]2CCCN(C(=O)CO)C2)ncc1Cl [Compound I-311, (S)—N-(2-((5-chloro-2-((1-(2-hydroxyacetyl)piperidin-3-yl)amino)pyrimidin-4-yl)amino)phenyl)propionamide]",> 1000,501 to 999,> 1000,501 to 999,,,
